# Measured values from patent publication US9566307B2, “Pharmaceutical composition” (priority 2012, dated 2017).
# Residues, ends and D or L forms follow the SMILES beside them. *: point of attachment. Cbz = O=C(OCc1ccccc1)*; CH2F = FC*
# Assays:
# [1] = system: TE8 tumor indicating a resistivity against CDDP; assay: In vivo antitumor effect of EV4 type to CDDP resistant tumor, tumor volume; parameters: species or system nude mouse; settings: CDDP administered group, 125 μg/administration in abdominal cavity on second day; FIG. 10
# Experimental: The tumor refraction performance of EV4 type to a TE8 bearing nude mouse indicating a resistivity against CDDP (also called cisplatin) utilized in chemotherapies for esophageal cancer was examined. A nude mouse was inoculated with TE8 like the fifth example (0th day), and when it was confirmed that the tumor major axis became equal to or greater than 4 mm, CDDP dissolved in a normal saline solution was administered in an abdominal cavity at 125 μg/administration (second day). Note that for a non-treated group, the same amount of normal saline solution was administered. Eight days after the inoculation of TE8, furthermore, an EV4 type solution suspended in OPTI-MEM I of 50 μl was administered in the tumor once per a day and at a total of five times and at 1×10^7 TCID50/administration or 5×10^7 TCID50/administration. For the non-treated group and the CDDP administered group, the same amount of OPTI-MEM I was administered. The evaluation items were the tumor volume and the body weight like the fourth example.
# [2] = system: T.Tn (esophageal cancer cell line); assay: Effects of various inhibitors to cytotoxicity of EV4 type (1), microscope images; format: cell-based, human; settings: EV4 type MOI=0.1, four days after infection, 100 μM Z-VADfmk, 25 μM LY294002, 0.1 μM PD0325901, 1.0 μM bpV, FIG. 2
# Experimental: The inhibitors tested to check the effects to the cytotoxicity of EV4 type were Z-VADfmk (R&D System Corporation) as a pan-caspase inhibitor, LY294002 (Santa Cruz Biotechnology Corporation) as a PI3K inhibitor, PD0325901 (Wako Corporation) as an MEK inhibitor, and bpV (Merck Corporation) as a PTEN inhibitor.
# T.Tn was disseminated in a plate with 96 wells at 1×10^4 cells/well, and the plate was left stationary under a condition of 37° C. and 5% CO2. The culture medium in the well was replaced with a culture medium added with each inhibitor so as to be 100 μl/well. As to the concentrations of the respective inhibitors, 100 μM for Z-VADfmk, 25 μM for LY294002, 0.1 μM for PD0325901, and 1.0 μM for bpV. After the culture medium was replaced, the plate was left stationary under a condition of 37° C. and 5% CO2 for one hour. After the culture medium was eliminated, 100 μl of the diluted solution of EV4 type diluted with OPTI-MEM I so as to make EV4 type to be MOI=0.1 was added to each well, and was left stationary under a condition of 37° C. and 5% CO2 for one hour. Next, the diluted solution of EV4 type was eliminated, and the RPMI culture media containing the respective inhibitors were added to respective wells, and were co-cultured. Four days after the start of co-culturing, the image of each well was picked up by an optical microscope. Note that the concentration of each inhibitor was set to be a concentration expected not showing a cytotoxicity to T.Tn.
# TE8 cells = assay: Effect of MEK inhibitor to cytotoxicity of EV4 type (2), Celltilter-Glo living cell quantitation; format: cell-based, human; settings: EV4 type MOI=1.0, PD0325901 50-nM, 48 hours co-culturing, FIG. 3
# Experimental: An effect of an MEK inhibitor PD0325901 to the cytotoxicity of EV4 type was quantitatively examined.
# TE8 cells was disseminated in a plate with 96 wells at 1×10^4 cells/well, and the plate was left stationary for six hours under a condition of 37° C. and 5% CO2. The culture medium in the well was replaced with a culture medium containing a DMSO solution of PD0325901 of 50-nM. After the culture medium was replaced, the plate was left stationary for one hour under a condition of 37° C. and 5% CO2. After the culture medium was eliminated, 100 μl of EV4 type diluted solution diluted with OPTI-MEM I so as to have MOI=1.0 was added to each well, and the plate was left stationary for one hour under a condition of 37° C. and 5% CO2. For a control, a diluted solution of 100 μl containing no EV4 type was added. Next, the diluted solution was eliminated, and the culture media containing PD0325901 were added to respective wells, and were co-cultured. 48 hours after the start of co-culturing, living cells were quantitated using a Celltilter-Glo (Registered Trademark) kit of Promega corporation.
# HT29 = assay: Oxaliplatin resistance check, cell survival rate by MTS technique; format: cell-based, human; settings: HT29, oxaliplatin 100 μM, 48 hours; FIG. 17
# Experimental: (§1) In addition, in order to check the oxaliplatin resistance of, among the test-target cells, WiDr and HT29, respective cell survival rates of WiDr and HT29 after cultured for 48 hours in culture media containing oxaliplatin of a predetermined concentration were evaluated through an MTS technique.
# WiDr = assay: as above; format: cell-based, human; settings: oxaliplatin 200 μM, 48 hours, FIG. 17
# Experimental: as §1
compound,measurement,setting,value
"[NH2][Pt]([NH2])([Cl])[Cl] [CDDP, cisplatin]","Tumor volume, change with time",[1],"suppression of the increase of the tumor volume for eight days, but the increase of the tumor volume was observed thereafter"
O=c1cc(N2CCOCC2)oc2c(-c3ccccc3)cccc12 [LY294002],Effect of inhibitor on the cytotoxicity by EV4 type,[2],enhanced
O=C(NOC[C@H](O)CO)c1ccc(F)c(F)c1Nc1ccc(I)cc1F [PD0325901],Effect of inhibitor on the cytotoxicity of EV4 type (cell survival rate),TE8 cells,significantly enhanced
same,Effect of inhibitor on the cytotoxicity by EV4 type,[2],enhanced
COC(=O)C[C@H](NC(=O)[C@H](C)NC(=O)[C@@H](NC(=O)OCc1ccccc1)C(C)C)C(=O)CF [Z-VADfmk] (Cbz-Val-Ala-Asp(OMe)-CH2F),Effect of inhibitor on the cytotoxicity by EV4 type,[2],reduced
O=C1[O][Pt]2([NH][C@@H]3CCCC[C@H]3[NH]2)[O]C1=O [oxaliplatin],Cell survival rate,HT29,maintained the similar level of cell survival rate to those of the control group
same,Cell survival rate,WiDr,maintained the similar level of cell survival rate to those of the control group
bpV,Effect of inhibitor on the cytotoxicity by EV4 type,[2],reduced
